Test results from patent US9220676B2, “Injectable in-situ crosslinked hydrogel and methods of making and using thereof” (Bioregen Biomedical (Changzhou) Co., Ltd., priority 2008, dated 2015).

Assay: Release of corticosteroid from drug-containing in-situ crosslinked sodium hyaluronate hydrogel into phosphate buffer solution
Type: physicochemical
Settings: for cumulative releasing percentage of the drug: 0.2 mL gel in 10 mL phosphate buffer solution, 37° C., 100 rpm, UV absorption of supernatant; for release of the drug from the gel (in words): summary of the release table
Method: Into the 10 mL thiolated sodium hyaluronate solution prepared in Example 1 (pH 7.0, 1.0% w/v), 0.1-10 mg one type of corticosteroid (e.g. Beclomethasone, Beclomethasone dipropionate, Budesonide; Dexamethasone, Prednisolone or Prednisone) was added. The solution was mix uniformly and immediately filled into a 1 mL syringe which was then sealed and kept at room temperature. It was observed after one week that the solution sealed in the syringe had lost fluidity to form a gel.
0.2 mL gel containing drug as described above was filled into a 15 mL plastic centrifugal tube; 10 mL phosphate buffer solution was added into the centrifugal tube which was then put in an incubator (37° C., 100 rpm); ultraviolet absorption of the drug in the supernatant was recorded at a certain time interval.
The cumulative releasing percentages of the drug at different times are as below: […]

Row | SMILES | cumulative releasing percentage of the drug (day 7) [%] | cumulative releasing percentage of the drug (day 14) [%] | cumulative releasing percentage of the drug (day 21) [%] | release of the drug from the gel (in words)
1 | C[C@]12C=CC(=O)C=C1CC[C@@H]1[C@@H]2C(=O)C[C@@]2(C)[C@H]1CC[C@]2(O)C(=O)CO [Prednisone] | 82 | 95 | 100 | 
2 | CCC(=O)OCC(=O)[C@@]1(OC(=O)CC)[C@@H](C)C[C@H]2[C@@H]3CCC4=CC(=O)C=C[C@]4(C)[C@@]3(Cl)[C@@H](O)C[C@@]21C [Beclomethasone dipropionate] | <1 | <1 | <1 | release was rarely detected
3 | C[C@H]1C[C@H]2[C@@H]3CCC4=CC(=O)C=C[C@]4(C)[C@@]3(Cl)[C@@H](O)C[C@]2(C)[C@@]1(O)C(=O)CO [Beclomethasone] | 61 | 82 | 91 | 
4 | C[C@]12C=CC(=O)C=C1CC[C@@H]1[C@@H]2[C@@H](O)C[C@@]2(C)[C@H]1CC[C@]2(O)C(=O)CO [Prednisolone] | 95 | 100 | 100 | released substantially completely in 7 days
